In PMC10201369, “An asymmetric structure of bacterial TrpRS supports the half-of-the-sites catalytic mechanism and facilitates antimicrobial screening” (Nucleic Acids Research, 2023):

Legend:
EcTrpRS [1] = target: T1, EcTrpRS (Escherichia coli, UniProt P00954); assay: ITC, one-site model; assay type: binding
T1 construct: gene trpS; full-length (domains span residues 1-334), C-terminal His6 tag, pET20b(+), E. coli BL21(DE3); homodimer, as purified carries one copurified TrpAMP per dimer

EcTrpRS [2] = target: T1, EcTrpRS; assay: ITC, one-site model; cocrystal structure; assay type: binding; conditions: PBS, 15 °C
EcTrpRS [3] = target: T1, EcTrpRS; assay: crystal structure, copurified; assay type: binding; conditions: intermediate product in active site of closed subunit; 1.80 Å
EcTrpRS [4] = target: T1, EcTrpRS; assay: ATP consumption assay (Kinase-Glo), tRNA-dependent; assay type: biochemical
SaTrpRS = target: T2, SaTrpRS (Staphylococcus aureus, UniProt P67593); assay: ITC, one-site model; assay type: binding; conditions: PBS, 15 °C
T2 construct: gene trpS; residues 1-329, expressed and purified similarly to EcTrpRS (His-tagged, E. coli BL21(DE3))
T2 sequence (P67593 whole entry, the tested form may be a part): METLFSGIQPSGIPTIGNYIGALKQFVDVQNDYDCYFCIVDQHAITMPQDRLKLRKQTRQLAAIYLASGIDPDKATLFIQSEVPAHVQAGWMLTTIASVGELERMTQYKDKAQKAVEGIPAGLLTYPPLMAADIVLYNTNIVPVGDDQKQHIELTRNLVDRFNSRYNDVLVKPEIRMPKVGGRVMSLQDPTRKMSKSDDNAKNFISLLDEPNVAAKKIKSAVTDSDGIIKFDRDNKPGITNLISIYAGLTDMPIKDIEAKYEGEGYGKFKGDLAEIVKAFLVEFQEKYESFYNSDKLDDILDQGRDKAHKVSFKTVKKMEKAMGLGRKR

With `Nc1ncnc2c1ncn2[C@@H]1O[C@H](COP(=O)(O)OP(=O)(O)OP(=O)(O)O)[C@@H](O)[C@H]1O` [ATP] the Kd (EcTrpRS [1]) was 305 ± 49.9 µM.

`N[C@@H](Cc1c[nH]c2ccccc12)C(=O)O` [L-Trp] was tested, and the Kd (EcTrpRS [2]; measured for open-closed (one TrpAMP bound) and apo open-open enzyme, active site of open subunit) was “ITC measurements of L-Trp to ‘open-closed’ asymmetric EcTrpRS and ‘open-open’ apo EcTrpRS showed similar binding”.

With `Nc1ncnc2c1ncn2[C@@H]1O[C@H](COP(=O)(O)OC(=O)[C@@H](N)Cc2c[nH]c3ccccc23)[C@@H](O)[C@H]1O` [TrpAMP] the “crystal structure, copurified” value (EcTrpRS [3]) was “A copurified tryptophanyl adenylate (TrpAMP)”.

With `NC(=O)c1cccc2cn(-c3ccc([C@@H]4CCCNC4)cc3)nc12` [niraparib] the Kd (EcTrpRS [2]; L-Trp site of the open subunit, blocked by high L-Trp) was “~ around 20 μM”, the IC50 (EcTrpRS [4]) was 148 µM and the Kd (SaTrpRS) was “~ around 20 μM”.
